Measured values: PubChem BioAssay AID463199 (Broad Institute, 2010)
Activity calls are given as the source filed them.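 Rule for the calls: active = AC50, the dose giving half-maximal effect, exceeds a fixed cutoff for a compound that rescues yeast growth under heat; inactive = the rest, inconclusive results apart.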

tested on: S. cerevisiae Burl-1 ts mutant growth, BacTiter-Glo, 38.5C 24 h; experiment: restored growth of temperature-sensitive Burl-1 yeast – whole organism, S. cerevisiae, Burl-1 ts mutant, luminescence, counter-screen for SUMOylation pathway inhibitor project, dose response (AID 463199)

With `CN(C)c1oc(-c2ccccc2Cl)nc1S(=O)(=O)c1ccccc1` as the compound, how does the AC50 read?
The AC50 was > 42 µM (inactive).

How did the AC50 turn out when `O=C(c1ccncc1)N(Cc1ccccc1)Cc1nc2ccccc2c(=O)[nH]1` was run?
The AC50 was > 42 µM (inactive).

Which AC50 does the source give for `COc1ccc2cc(C#N)c(Nc3cccc(F)c3)nc2c1` here?
The AC50 was > 42 µM (inactive).

How did the AC50 turn out when `Cc1nnsc1C(=O)N1CCC(CO)(Cc2ccccc2Cl)CC1` was run?
The AC50 was > 42 µM (inactive).

How did the AC50 turn out when `O=C(Oc1ccccc1N1C(=O)C2CC=CCC2C1=O)c1ccc(Br)cc1` (centres undefined) was run?
The AC50 was > 42 µM (inactive).

Which AC50 does the source give for `Cc1ccc(NC(=O)COc2ccccc2C(=O)NCCN(C)C)cc1` here?
The AC50 was > 42 µM (inactive).

`O=C(O)C1CCCN1C(=O)c1cncc(Br)c1` (centres undefined) was tested. Which AC50 did it give?
The AC50 was > 42 µM (inactive).

`CN(c1ccccc1)S(=O)(=O)c1ccc(C(=O)NCC2CCCO2)cc1` (centres undefined) was tested. Which AC50 did it give?
Its AC50 is > 21 µM (inactive).

Which AC50 does the source give for `CCOC(=O)c1oc2ccccc2c1COC(=O)CNC(=O)c1cccc(C)c1` here?
The AC50 was > 42 µM (inactive).

Which AC50 does the source give for `C[C@]12CC[C@H]3C(=CCc4cc(O)ccc43)[C@@H]1CCC2=O` here?
The AC50 was > 42 µM (inactive).

`Cc1cccc(CSc2ccc(-c3ccco3)nn2)c1` was tested. Which AC50 did it give?
Its AC50 is > 42 µM (inactive).

How did the AC50 turn out when `CCOc1ccc(-c2nc3n(c(=O)c2C#N)CCS3)cc1` was run?
The AC50 was 40.7 µM.

How did the AC50 turn out when `O=C(CCc1nc2sc3c(c2c(=O)[nH]1)CCCC3)N1CCN(c2ccccc2)CC1` was run?
The AC50 was > 42 µM (inactive).

For `O=S(=O)(Cc1ccccc1)NCc1ccccn1`, which AC50 is on record?
Its AC50 is > 42 µM (inactive).

Which AC50 does the source give for `C=C1C2C[C@@]3([C@@H]1O)[C@@H](C[C@@H]2O)[C@@]12C4[C@@H]3C[C@@H]1[C@@](C)(CC[C@@H]2O)CN4CC` here?
Its AC50 is > 42 µM (inactive).

For `O=C(Nc1ccc(F)cc1F)N1CCCN(c2ccc(C(F)(F)F)cn2)CC1`, which AC50 is on record?
Its AC50 is > 42 µM (inactive).

Which AC50 does the source give for `Cc1ccc2c(c1)C(=O)N1[C@H]3c4ccccc4OC[C@@H]3[C@H](c3ccccc3)[C@]1(C)C(=O)N2` here?
Its AC50 is > 42 µM (inactive).

How did the AC50 turn out when `CCCC(=O)NC(C)c1nc2ccccc2[nH]1` (centres undefined) was run?
Its AC50 is > 42 µM (inactive).

With `CCOc1ccc(NC(=O)CNc2ccc(C)cc2Cl)cc1` as the compound, how does the AC50 read?
The AC50 was > 42 µM (inactive).

For `CC(C)NC(=O)NC(=O)COC(=O)CCCSc1nc2ccccc2s1`, which AC50 is on record?
The AC50 was > 42 µM (inactive).

Which AC50 does the source give for `CCOc1ccccc1CN1CCN(Cc2ccon2)CC1CCO` (centres undefined) here?
Its AC50 is > 42 µM (inactive).

Which AC50 does the source give for `C[C@@]12C(=O)Nc3ccc(F)cc3C(=O)N1[C@H]1c3ccccc3OC[C@@H]1[C@@H]2c1ccccc1` here?
Its AC50 is > 42 µM (inactive).

How did the AC50 turn out when `O=C(COC(=O)C1CC(=O)N(Cc2ccccc2)C1)Nc1ccccc1F` (centres undefined) was run?
Its AC50 is > 21 µM (inactive).

How did the AC50 turn out when `Cc1c(NC(=O)c2ccc(N(C)S(C)(=O)=O)cc2)c(=O)n(-c2ccccc2)n1C` was run?
The AC50 was > 42 µM (inactive).

How did the AC50 turn out when `Cn1nc(C(C)(C)C)c([N+](=O)[O-])c1C(=O)Nc1ccccc1` was run?
Its AC50 is > 42 µM (inactive).

Which AC50 does the source give for `CC1(C)NC(=O)N(CCCOc2ccccc2Br)C1=O` here?
The AC50 was > 42 µM (inactive).

How did the AC50 turn out when `Cc1cc(C)nc(SCC2COc3ccccc3O2)n1` (centres undefined) was run?
The AC50 was > 42 µM (inactive).

With `CCOc1ccc(NC(=O)C2CC(=O)N3CCCN=C3S2)cc1` (centres undefined) as the compound, how does the AC50 read?
Its AC50 is > 42 µM (inactive).

With `Cc1cnc(C(=O)OCC(=O)Nc2ccc(C)c(S(=O)(=O)N(C)C)c2)cn1` as the compound, how does the AC50 read?
The AC50 was > 42 µM (inactive).

Which AC50 does the source give for `O=C(NC1CCCCC1)c1ccc2snnc2c1` here?
The AC50 was > 42 µM (inactive).

For `Cn1cccc1CC(=O)N/N=C/c1cccc([N+](=O)[O-])c1`, which AC50 is on record?
Its AC50 is > 42 µM (inactive).

With `CC1=CC(=O)C(C(C)C)=C/C1=N/OS(=O)(=O)c1ccccc1` as the compound, how does the AC50 read?
The AC50 was > 50 µM (inactive).

With `CCCCn1c(N)c(N(CCOC)C(=O)c2ccc(Cl)c(S(=O)(=O)N3CCCCC3)c2)c(=O)[nH]c1=O` as the compound, how does the AC50 read?
Its AC50 is > 42 µM (inactive).

`O=C(O)c1ccc(/C=N/NC(=O)c2cc(-c3ccc4c5c(cccc35)CC4)n[nH]2)cc1` was tested. Which AC50 did it give?
Its AC50 is > 42 µM (inactive).

With `CC1CCN(CCCOc2ccc(OCc3ccccc3)cc2)CC1` as the compound, how does the AC50 read?
Its AC50 is > 42 µM (inactive).

For `Cc1ccc(NC(=O)CN(C)C(=O)c2cccc(Br)c2)cc1`, which AC50 is on record?
Its AC50 is > 42 µM (inactive).

With `CC(=O)Nc1ccc(S(=O)(=O)Nc2ccc(S(=O)(=O)Nc3ncccn3)cc2)cc1` as the compound, how does the AC50 read?
The AC50 was > 42 µM (inactive).

Which AC50 does the source give for `Cc1ccc2c(c1)N(CC(=O)NCCCN1CCN(C)CC1)C(=O)CO2` here?
The AC50 was > 42 µM (inactive).

`O=C(O)Cc1sc(Nc2ccccc2)nc1-c1cccs1` was tested. Which AC50 did it give?
The AC50 was > 42 µM (inactive).

With `CCCNC(=O)CN(c1ccc(F)cc1)S(=O)(=O)c1ccc2c(c1)OCCO2` as the compound, how does the AC50 read?
Its AC50 is > 42 µM (inactive).

For `CCOc1ccccc1C(=O)N(Cc1cccs1)C1CCS(=O)(=O)C1` (centres undefined), which AC50 is on record?
The AC50 was > 42 µM (inactive).

How did the AC50 turn out when `COc1cc(CNCc2ccc3c(c2)OCO3)c([N+](=O)[O-])cc1OC` was run?
The AC50 was > 42 µM (inactive).

With `Cc1cccc(/C=N/NC(=O)Cc2cccs2)c1` as the compound, how does the AC50 read?
The AC50 was > 42 µM (inactive).

For `CCCN1C(=O)c2ccc(C(=O)Nc3nccs3)cc2C1=O`, which AC50 is on record?
Its AC50 is > 42 µM (inactive).

How did the AC50 turn out when `CCC(C)NC(=O)CSc1nnc(-c2cc(-c3ccc(C)cc3)nc3ccccc23)n1N` (centres undefined) was run?
The AC50 was > 42 µM (inactive).

For `Cn1c(=O)nc2n(Cc3ccccc3)c3ccccc3cc-2c1=O`, which AC50 is on record?
The AC50 was > 42 µM (inactive).

Which AC50 does the source give for `CC[C@@H]1C/C=C\Cc2ccccc2[C@H](C(=O)C[C@@H](O)CC(C)=O)OC1=O` here?
The AC50 was > 42 µM (inactive).

With `COC(C(=O)Nc1ccnn1C1CCN(Cc2cnn(C)c2)CC1)c1ccccc1` (centres undefined) as the compound, how does the AC50 read?
The AC50 was > 42 µM (inactive).

`COc1ccc(N=C2SC(C(=O)O)CC(=O)N2Cc2ccc(OC)c(OC)c2)cc1` (centres undefined) was tested. Which AC50 did it give?
Its AC50 is > 42 µM (inactive).
